Assay results as given in patent publication US11162951B2, “Membrane-impermeant fluorogenic chromophores” (PARIS SCIENCES ET LETTRES, priority 2017, dated 2021).
Several values for one entry are separate records, joined by “and”; a condition that tells them apart may be missing. Identical values can stand only once. Entries after “also recorded” stand apart in the source; their conditions may differ.

Assays:
[1] = test system: HeLa cells displaying FAST on the extracellular side (Ig κ-chain leader / PDGFR transmembrane domain); assay: Selective labeling of cell-surface FAST-tagged proteins, confocal imaging; assay type: cell-based; conditions: for Localisation of fluorescent labeling of FAST-tagged protein: 5 min
Procedure: (§1) The plasmid pAG211 for mammalian expression of FAST (fused also to mCherry as additional transfection marker) at the outer plasma membrane was obtained by inserting the sequence coding the protein of interest within the pDisplay plasmid (ThermoFisher) using Sal I and Bgl II restriction sites. The plasmid pAG96 for cytoplasmic expression of FAST fused to mCherry was previously reported (Plamont, M.-A. et al., 2016).
(§2) HeLa cells were cultured in DMEM supplemented with phenol red, Glutamax I, 10% (vol/vol) fetal calf serum (FCS), and 1% penicillin-streptomycin at 37° C. within a 5% CO2 atmosphere. For microscopic imaging, cells were seeded in μDish or μSlide IBIDI (Biovalley) coated with poly-L-lysine. Cells were transiently transfected using Genejuice (Merck) according to the manufacturer's protocol. Before imaging, cells were washed with PBS, and treated with DMEM media (without serum and phenol red) containing the fluorogens at the indicated concentration. Cells were imaged directly without washing.
(§3) Confocal micrographs were acquired on a Zeiss LSM 710 Laser Scanning Microscope equipped with a Plan Apochromat 63×/1.4 NA oil immersion objective. ZEN software was used to collect the data. Images were analyzed with Image J. Flow cytometry analyses were performed on an Accuri C6 cytometer (BD Biosciences).
Next, the use of HBRAA-3E for the selective labeling of cell-surface FAST-tagged proteins was studied. A polypeptide was engineered comprising a FAST in between a murine Ig κ-chain leader sequence and the platelet derived growth factor receptor (PDGFR) transmembrane domain. FAST was fused at the […] of the PDGFR transmembrane domain, which anchors the protein to the plasma membrane. The resulting FAST-tagged protein was expressed transiently in HeLa cells.

[2] = target: T1, FAST (variant of the photoactive yellow protein (PYP), SEQ ID NO: 3) (Halorhodospira halophila, UniProt P16113, C69G/D97P/F96I/M100R/Q99S/T101G/T95M/Y94W/Y98T); assay: Physico-chemical (absorption/fluorescence) properties of FAST:fluorogen complexes; assay type: physicochemical; conditions: for Brightness (ε×ϕ) / ε, molar absorption coefficient at λabs / λabs, wavelength of maximal absorption / λem, wavelength of maximal emission / ϕ, fluorescence quantum yield: FAST:fluorogen complex in PBS pH 7.4
T1 construct: His tag; made in house; host or cells: Rosetta(DE3)pLysS E. coli
T1 sequence (P16113 whole entry C69G/Y94W/T95M/F96I/D97P/Y98T/Q99S/M100R/T101G): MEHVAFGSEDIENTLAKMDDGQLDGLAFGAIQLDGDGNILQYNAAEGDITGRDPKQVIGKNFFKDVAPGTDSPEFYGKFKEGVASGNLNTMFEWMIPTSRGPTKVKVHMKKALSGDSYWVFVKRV
Procedure: In an embodiment, the fluorescence quantum yields after one-photon excitation ϕ are calculated from the relation: […]
Methods for measuring the brightness are well-known in the art. Brightness corresponds to the fluorescence output per emitter and is the product of the molar absorption coefficient (at the excitation wavelength) and the fluorescence quantum yield.
(§4) His-tagged FAST was expressed in Rosetta(DE3)pLysS E. coli (New England Biolabs). Cells were grown at 37° C. in Lysogeny Broth (LB) medium to OD600 nm 0.6. Expression was induced for 4 h by adding isopropyl β-D-1-thiogalactopyranoside (IPTG) to a final concentration of 1 mM. Cells were harvested by centrifugation (6,000×g for 15 min at 4° C.) and frozen. The cell pellet was resuspended in lysis buffer (phosphate buffer 50 mM, NaCl 150 mM, MgCl2 2.5 mM, protease inhibitor, DNase, pH 7.4) and sonicated (5 min at 20% of amplitude). The lysate was incubated for 2 h at 4° C. to allow DNA digestion by DNase. Cellular fragments were removed by centrifugation (15,000×g for 1 h at 4° C.). The supernatant was incubated overnight at 4° C. under gentle agitation with Ni-NTA agarose beads in phosphate buffered saline (PBS) (sodium phosphate 50 mM, NaCl 150 mM, pH 7.4) complemented with 10 mM Imidazole. Beads were washed with 20 volumes of PBS containing 20 mM Imidazole, and with 5 volumes of PBS complemented with 40 mM Imidazole. His-tagged proteins were eluted with 5 volumes of PBS complemented with 0.5 M Imidazole, followed by dialysis with PBS.
(§5) UV/Vis absorption spectra were recorded in 1 cm×1 cm quartz cuvettes (Hellma) on a diode array UV/Vis spectrophotometer (Evolution array, Thermo Scientific). Corrected fluorescence spectra upon one-photon excitation were recorded with a Photon Technology International QuantaMaster QM-1 spectrofluorimeter (PTI, Monmouth Junction, N.J.) equipped with a Peltier cell holder (TLC50, Quantum Northwest, Shoreline, Wash.).
(§6) Physico-chemical properties of FAST:fluorogen complexes in PBS pH 7.4 are described in Table 2 below: λabs, wavelength of maximal absorption; λem, wavelength of maximal emission; ε, molar absorption coefficient at λabs; ϕ, fluorescence quantum yield; KD affinity constant. The brightness is equal to ε×ϕ.

[3] = target: T1, FAST (variant of the photoactive yellow protein (PYP), SEQ ID NO: 3); assay: biochemical; assay type: binding; conditions: for Kd: KD affinity constant, FAST:fluorogen complex in PBS pH 7.4
Procedure: In an embodiment, the thermodynamic dissociation constant KD is determined by spectrofluorometric titration as described in the Examples.
as §4, §5, §6

[4] = test system: HeLa cells expressing FAST fused to mCherry in the cytoplasm; assay: Cell exclusion after prolonged exposure, confocal imaging; assay type: cell-based; conditions: 5 μM, two hours, cytoplasmic FAST-mCherry
Procedure: as §1, §2, §3
Cell exclusion after prolonged exposure was then evaluated. […]

Structure (SMILES)	Brightness (ε×ϕ) [2]	ε, molar absorption coefficient at λabs [2] [mM⁻¹ cm⁻¹]	λabs, wavelength of maximal absorption [2] [nm]	λem, wavelength of maximal emission [2] [nm]	ϕ, fluorescence quantum yield [2] [%]	Kd [3]	Affinity for FAST, in words [3]	also measured
Cc1cc(/C=C2\SC(=S)NC2=O)ccc1O [HMBR, 4-hydroxy-3-methylbenzylidene rhodanine, reference compound]	–	–	–	–	–	–	–	Localisation of fluorescent labeling of FAST-tagged protein ([1]; 5 μM): labeling of FAST-tagged proteins both at the membrane and within the secretory pathway; also recorded: revealed membrane and intracellular proteins; Labeling after subsequent addition to cells pre-treated 1 h with HBRAA-3E ([1]; immediate imaging (<10 s)): revealed proteins within the secretory pathway
CCOc1cc(/C=C2\SC(=S)N(CC(=O)O)C2=O)ccc1O [HBRAA-3OE, (Z)-2-(5-(4-hydroxy-3-ethoxybenzylidene)-4-oxo-2-thioxothiazolidin-3-yl)acetic acid]	about 3,700	62	525	575	6	1700 nM	–	Brightness (ε×ϕ) ([2]; listed as FAST:HBRAA-3OE): 3,700; Shift of absorption and emission of the FAST complex compared with HBRAA-3E ([2]; in words): further red-shifted the absorption and the emission
CCc1cc(/C=C2\SC(=S)N(CC(=O)O)C2=O)ccc1O [HBRAA-3E, (Z)-2-(5-(3-ethyl-4-hydroxybenzylidene)-4-oxo-2-thioxothiazolidin-3-yl)acetic acid]	about 4,900	61	505	559	8	~1300 nM and 1300 nM	–	Red shift in absorption compared to FAST:HMBR [2]: 25 nm; Red shift in emission compared to FAST:HMBR [2]: 20 nm; Brightness (ε×ϕ) ([2]; listed as FAST:HBRAA-3E): 4,900; Localisation of fluorescent labeling of FAST-tagged protein ([1]; 5 μM): fluorescent labeling only at the plasma membrane; also recorded: revealed only surface-exposed proteins; Intracellular labeling upon longer incubation ([1]; 5 μM, 1 h): no intracellular labeling; Intracellular labeling (cell exclusion) [4]: no intracellular labeling
O=C(O)CN1C(=O)/C(=C/c2ccc(O)cc2)SC1=S [HBRAA, (Z)-2-(5-(4-hydroxybenzylidene)-4-oxo-2-thioxothiazolidin-3-yl)acetic acid]	–	–	488	555	–	> 20000 nM	almost no affinity for FAST	–
O=C1NC(=S)S/C1=C\c1ccc(O)cc1 [HBR, 4-hydroxybenzylidene rhodanine, reference compound]	4,000	44	467	527	9	–	–	–
Cc1cc(/C=C2\SC(=S)N(CC(=O)O)C2=O)c(C)cc1O [HBRAA-2,5DM, (Z)-2-(5-(4-hydroxy-2,5-dimethylbenzylidene)-4-oxo-2-thioxothiazolidin-3-yl)acetic acid]	3,200	63	519	566	5	5400 nM	none of the complexes formed by di-substituted compounds HBRAA-2,5DM, HBRAA-3,5DM and HBRAA-3,5DMO has an affinity higher than the one of HBRAA-3M	–
COc1cc(/C=C2\SC(=S)N(CC(=O)O)C2=O)cc(OC)c1O [HBRAA-3,5DOM, (Z)-2-(5-(4-hydroxy-3,5-dimethoxybenzylidene)-4-oxo-2-thioxothiazolidin-3-yl)acetic acid]	–	–	532	606	1	> 20000 nM	none of the complexes formed by di-substituted compounds HBRAA-2,5DM, HBRAA-3,5DM and HBRAA-3,5DMO has an affinity higher than the one of HBRAA-3M	–
Cc1cc(/C=C2\SC(=S)N(CC(=O)O)C2=O)ccc1O [HBRAA-3M, (Z)-2-(5-(4-hydroxy-3-methylbenzylidene)-4-oxo-2-thioxothiazolidin-3-yl)acetic acid]	3,400	56	502	557	6	6400 nM	–	Brightness compared with FAST:HMBR ([2]; in words): three-fold lower brightness
COc1cc(O)ccc1/C=C1\SC(=S)N(CC(=O)O)C1=O [HBRAA-2OM, (Z)-2-(5-(4-hydroxy-2-methoxybenzylidene)-4-oxo-2-thioxothiazolidin-3-yl)acetic acid]	about 2,800	55	497	537	5	500 nM and 480 nM	–	Brightness (ε×ϕ) ([2]; listed as FAST:HBRAA-2OM): 2,800
Cc1cc(/C=C2\SC(=S)N(CC(=O)O)C2=O)cc(C)c1O [HBRAA-3,5DM, (Z)-2-(5-(4-hydroxy-3,5-dimethylbenzylidene)-4-oxo-2-thioxothiazolidin-3-yl)acetic acid]	–	–	522	571	4	> 20000 nM	none of the complexes formed by di-substituted compounds HBRAA-2,5DM, HBRAA-3,5DM and HBRAA-3,5DMO has an affinity higher than the one of HBRAA-3M	–
COc1cc(/C=C2\SC(=S)N(CC(=O)O)C2=O)ccc1O [HBRAA-3OM, (Z)-2-(5-(4-hydroxy-3-methoxybenzylidene)-4-oxo-2-thioxothiazolidin-3-yl)acetic acid]	–	–	520	572	2	> 20000 nM	almost no affinity with FAST	–
